Measurements reported in ChEMBL document CHEMBL3792365, “Dioxol and dihydrodioxin analogs of 2- and 3-phenylacetonitriles as potent anti-cancer agents with nanomolar activity against a variety of human cancer cells” (2016).

Columns and labels:
Type in all cases: functional
U-251 = test: Growth inhibition of human U251 cells at 10 uM after 48 hrs by sulforhodamine B assay; details: U-251, 48 h, values are per cent of control
Malme-3M = test: Growth inhibition of human MALME-3M cells at 10 uM after 48 hrs by sulforhodamine B assay; details: values are per cent of control
MDA-MB-435 = test: Growth inhibition of human MDA-MB-435 cells at 10 uM after 48 hrs by sulforhodamine B assay; details: MDA-MB-435, 48 h, values are per cent of control
[1] = Growth inhibition of human UACC257 cells at 10 uM after 48 hrs by sulforhodamine B assay; details: UACC-257, 48 h, values are per cent of control
[2] = Growth inhibition of human OVCAR3 cells at 10 uM after 48 hrs by sulforhodamine B assay; details: OVCAR-3, 48 h, values are per cent of control
[3] = Growth inhibition of human PC3 cells at 10 uM after 48 hrs by sulforhodamine B assay; details: PC-3, 48 h, values are per cent of control
MCF7 = test: Growth inhibition of human MCF7 cells at 10 uM after 48 hrs by sulforhodamine B assay; details: MCF7, 48 h, values are per cent of control
[4] = Growth inhibition of human BT549 cells at 10 uM after 48 hrs by sulforhodamine B assay; details: BT-549, 48 h, values are per cent of control
MDA-MB-468 = test: Growth inhibition of human MDA-MB-468 cells at 10 uM after 48 hrs by sulforhodamine B assay; details: MDA-MB-468, 48 h, values are per cent of control
CCRF-CEM = test: Growth inhibition of human CCRF-CEM cells at 10 uM after 48 hrs by sulforhodamine B assay; details: values are per cent of control
[5] = Growth inhibition of human HL-60(TB) cells at 10 uM after 48 hrs by sulforhodamine B assay; details: HL-60, 48 h, values are per cent of control
[6] = Growth inhibition of human MOLT4 cells at 10 uM after 48 hrs by sulforhodamine B assay; details: MOLT-4, 48 h, values are per cent of control
[7] = Growth inhibition of human RPMI8226 cells at 10 uM after 48 hrs by sulforhodamine B assay; details: RPMI-8226, 48 h, values are per cent of control
SR = test: Growth inhibition of human SR cells at 10 uM after 48 hrs by sulforhodamine B assay; details: values are per cent of control
[8] = Growth inhibition of human HOP62 cells at 10 uM after 48 hrs by sulforhodamine B assay; details: HOP-62, 48 h, values are per cent of control
[9] = Growth inhibition of human HOP92 cells at 10 uM after 48 hrs by sulforhodamine B assay; details: HOP-92, 48 h, values are per cent of control
NCI-H226 = test: Growth inhibition of human NCI-H226 cells at 10 uM after 48 hrs by sulforhodamine B assay; details: NCI-H226, 48 h, values are per cent of control
KM12 = test: Growth inhibition of human KM12 cells at 10 uM after 48 hrs by sulforhodamine B assay; details: KM12, 48 h, values are per cent of control
[10] = Growth inhibition of human SNB19 cells at 10 uM after 48 hrs by sulforhodamine B assay; details: SNB-19, 48 h, values are per cent of control

Question: Which growth, % of control at 10 µM (U-251) does the source give for N#C/C(=C\c1cc(F)cc(F)c1)c1ccc2c(c1)OCO2 here?
Answer: 108%

Question: And the growth, % of control at 10 µM (Malme-3M)?
Answer: 116%

Question: And the growth, % of control at 10 µM (MDA-MB-435)?
Answer: 98.2%

Question: What about the growth, % of control at 10 µM [1] of the same compound?
Answer: 104%

Question: What about the growth, % of control at 10 µM [2] of the same compound?
Answer: 109%

Question: And the growth, % of control at 10 µM [3]?
Answer: 101%

Question: And the growth, % of control at 10 µM (MCF7)?
Answer: 88.4%

Question: What about the growth, % of control at 10 µM [4] of the same compound?
Answer: 94.5%

Question: And the growth, % of control at 10 µM (MDA-MB-468)?
Answer: 102%

Question: And the growth, % of control at 10 µM (CCRF-CEM)?
Answer: 97.7%

Question: And the growth, % of control at 10 µM [5]?
Answer: 108%

Question: What about the growth, % of control at 10 µM [6] of the same compound?
Answer: 83.1%

Question: And the growth, % of control at 10 µM [7]?
Answer: 94.7%

Question: What about the growth, % of control at 10 µM (SR) of the same compound?
Answer: 84.6%

Question: What about the growth, % of control at 10 µM [8] of the same compound?
Answer: 91.9%

Question: And the growth, % of control at 10 µM [9]?
Answer: 125%

Question: What about the growth, % of control at 10 µM (NCI-H226) of the same compound?
Answer: 102%

Question: What about the growth, % of control at 10 µM (KM12) of the same compound?
Answer: 97.6%

Question: And the growth, % of control at 10 µM [10]?
Answer: 110%
